PubChem BioAssay (NCI)
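A five-concentration, 48-hour dose response in 96-well plates underlies each endpoint, interpolated linearly between surrounding concentrations. Abbreviation: GI50, concentration required for 50% inhibition of growth. TGI is the concentration that stops growth completely.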

What was measured:
Assay in all cases: growth of human tumour cells (NCI), 48 h
NCI-H460 lung = tested on: NCI-H460 lung
SNB-75 CNS = tested on: SNB-75 CNS
M14 melanoma = tested on: M14 melanoma
OVCAR-8 ovarian = tested on: OVCAR-8 ovarian
BT-549 breast = tested on: BT-549 breast
HOP-62 NSCLC = tested on: HOP-62 NSCLC
UACC-62 melanoma = tested on: UACC-62 melanoma
OVCAR-5 ovarian = tested on: OVCAR-5 ovarian
TK-10 renal = tested on: TK-10 renal
MALME-3M melanoma = tested on: MALME-3M melanoma
DU-145 prostate = tested on: DU-145 prostate
KM12 colon = tested on: KM12 colon
SW-620 colon = tested on: SW-620 colon
HT29 colon = tested on: HT29 colon
MCF7 breast = tested on: MCF7 breast
A498 renal = tested on: A498 renal
PC-3 prostate = tested on: PC-3 prostate
SN12C renal = tested on: SN12C renal
OVCAR-4 ovarian = tested on: OVCAR-4 ovarian
SK-MEL-5 melanoma = tested on: SK-MEL-5 melanoma
SF-268 CNS = tested on: SF-268 CNS
HCC-2998 colon = tested on: HCC-2998 colon
OVCAR-3 ovarian = tested on: OVCAR-3 ovarian
MOLT-4 leukemia = tested on: MOLT-4 leukemia
786-0 renal = tested on: 786-0 renal
HCT-116 colon = tested on: HCT-116 colon
HCT-15 colon = tested on: HCT-15 colon
NCI-H23 lung = tested on: NCI-H23 lung
HL-60(TB) leukemia = tested on: HL-60(TB) leukemia
SK-MEL-2 melanoma = tested on: SK-MEL-2 melanoma

O=c1[nH]ccc2nc(N3CCC(O)CC3)nc(Nc3ccc(N4CCOCC4)cc3)c12
TGI (NCI-H460 lung): > 100 µM
GI50 (SNB-75 CNS): 2.39 µM
TGI (SNB-75 CNS): 12.1 µM
GI50 (M14 melanoma): 0.351 µM
TGI (M14 melanoma): > 100 µM
GI50 (OVCAR-8 ovarian): > 100 µM
TGI (OVCAR-8 ovarian): > 100 µM
GI50 (BT-549 breast): 2.31 µM
TGI (BT-549 breast): > 46.5 µM
GI50 (HOP-62 NSCLC): 5.32 µM
TGI (HOP-62 NSCLC): > 100 µM
GI50 (UACC-62 melanoma): 20.5 µM
TGI (UACC-62 melanoma): > 100 µM
GI50 (OVCAR-5 ovarian): 3.38 µM
TGI (OVCAR-5 ovarian): > 100 µM
GI50 (TK-10 renal): > 26.3 µM
TGI (TK-10 renal): > 100 µM
GI50 (MALME-3M melanoma): 1.61 µM
TGI (MALME-3M melanoma): > 63 µM
GI50 (DU-145 prostate): 2.95 µM
TGI (DU-145 prostate): > 100 µM
GI50 (KM12 colon): 0.055 µM
TGI (KM12 colon): > 100 µM
GI50 (SW-620 colon): 1.75 µM
TGI (SW-620 colon): > 100 µM
GI50 (HT29 colon): 1.06 µM
TGI (HT29 colon): > 100 µM
GI50 (MCF7 breast): 4.45 µM
TGI (MCF7 breast): > 100 µM
GI50 (A498 renal): 1.49 µM
TGI (A498 renal): 9.77 µM
GI50 (PC-3 prostate): > 100 µM
TGI (PC-3 prostate): > 100 µM
GI50 (SN12C renal): 2.55 µM
TGI (SN12C renal): > 100 µM
GI50 (OVCAR-4 ovarian): > 100 µM
TGI (OVCAR-4 ovarian): > 100 µM
GI50 (SK-MEL-5 melanoma): 3.69 µM
TGI (SK-MEL-5 melanoma): > 50.8 µM
GI50 (SF-268 CNS): 5.94 µM
TGI (SF-268 CNS): > 100 µM
TGI (HCC-2998 colon): > 81.2 µM
GI50 (OVCAR-3 ovarian): 29.1 µM
TGI (OVCAR-3 ovarian): > 100 µM
GI50 (MOLT-4 leukemia): > 83.8 µM
TGI (MOLT-4 leukemia): > 100 µM
GI50 (786-0 renal): > 22.6 µM
TGI (786-0 renal): > 100 µM
GI50 (HCT-116 colon): 0.736 µM
TGI (HCT-116 colon): > 100 µM
GI50 (HCT-15 colon): 1.24 µM
TGI (HCT-15 colon): > 100 µM
GI50 (NCI-H23 lung): 8.71 µM
TGI (NCI-H23 lung): > 100 µM
GI50 (HL-60(TB) leukemia): > 100 µM
TGI (HL-60(TB) leukemia): > 100 µM
GI50 (SK-MEL-2 melanoma): 2.27 µM
TGI (SK-MEL-2 melanoma): > 100 µM
